According to patent publication US20160244437A1, “SUBSTITUTED PHENYLALANINE DERIVATIVES” (BAYER PHARMA AKTIENGESELLSCHAFT, priority 2013, published 2016):
Counter-ions that a name gives are not always drawn.

Target: T1, human factor XIa (Homo sapiens, UniProt P03951)
T1 construct: purchased Kordia
Assay: Measurement of FXIa inhibition (fluorogenic peptide substrate Boc-Glu(OBzl)-Ala-Arg-AMC)
Type: biochemical
Settings: factor XIa from Kordia 0.45 nM, 15 min pre-incubation, 30 min at 22° C., fluorescence
Protocol: The factor XIa inhibition of the substances according to the invention is determined using a biochemical test system which utilizes the reaction of a peptidic factor XIa substrate to determine the enzymatic activity of human factor XIa. Here, factor XIa cleaves from the peptic factor XIa substrate the C-terminal aminomethylcoumarin (AMC), the fluorescence of which is measured. The determinations are carried out in microtitre plates.
Test substances are dissolved in dimethyl sulphoxide and serially diluted in dimethyl sulphoxide (3000 μM to 0.0078 μM; resulting final concentrations in the test: 50 μM to 0.00013 μM). In each case 1 μl of the diluted substance solutions is placed into the wells of white microtitre plates from Greiner (384 wells). Subsequently, the following are added successively: 20 μl of assay buffer (50 mmol/l Tris buffer pH 7.4; 100 mmol/l sodium chloride; 5 mmol/l calcium chloride; 0.1% bovine serum albumin) and 20 μl of factor XIa from Kordia (0.45 nM in assay buffer). After 15 min of incubation, the enzyme reaction is started by addition of 20 μl of the factor XIa substrate Boc-Glu(OBzl)-Ala-Arg-AMC dissolved in assay buffer (10 μM in assay buffer) from Bachem, the mixture is incubated at room temperature (22° C.) for 30 min and fluorescence is then measured (excitation: 360 nm, emission: 460 nm). The measured emissions of the test batches with test substance are compared to those of control batches without test substance (only dimethyl sulphoxide instead of test substance in dimethyl sulphoxide), and IC50 values are calculated from the concentration/activity relationships.

T1 sequence (P03951 388-625 limits assumed): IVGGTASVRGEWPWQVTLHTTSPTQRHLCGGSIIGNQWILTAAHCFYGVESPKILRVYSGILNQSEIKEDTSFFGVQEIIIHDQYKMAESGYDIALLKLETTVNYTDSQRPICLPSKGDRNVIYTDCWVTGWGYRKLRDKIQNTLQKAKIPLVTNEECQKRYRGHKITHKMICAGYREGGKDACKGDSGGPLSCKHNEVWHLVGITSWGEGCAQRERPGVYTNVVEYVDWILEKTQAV
T1 sequence (P03951 19-387 partner limits assumed): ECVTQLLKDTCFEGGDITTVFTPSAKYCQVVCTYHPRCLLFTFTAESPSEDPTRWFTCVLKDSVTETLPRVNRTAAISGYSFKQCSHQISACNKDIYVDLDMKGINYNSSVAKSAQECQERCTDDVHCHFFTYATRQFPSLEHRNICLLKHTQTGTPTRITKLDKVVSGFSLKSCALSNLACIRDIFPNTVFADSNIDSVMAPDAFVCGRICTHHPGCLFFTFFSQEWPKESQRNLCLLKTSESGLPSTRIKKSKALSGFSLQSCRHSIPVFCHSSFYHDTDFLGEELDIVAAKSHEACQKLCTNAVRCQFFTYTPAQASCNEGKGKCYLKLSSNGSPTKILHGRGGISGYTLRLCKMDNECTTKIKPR

Row | SMILES | IC50 [nM]
1 | Cc1ccc(S(=O)(=O)N2CCOCC2)cc1-c1cccc(C[C@H](NC(=O)[C@H]2CC[C@H](CN)CC2)C(=O)Nc2ccc(-c3nnn[nH]3)cc2)c1 [Example 3, trans-4-(Aminomethyl)-N-[(2S)-3-[2′-methyl-5′-(morpholin-4-ylsulphonyl)biphenyl-3-yl]-1-oxo-1-{[4-(1H-tetrazol-5-yl)phenyl]amino}propan-2-yl]cyclohexanecarboxamide hydrochloride] | 0.9
2 | Cc1ccc(S(=O)(=O)N(C)C)cc1-c1cccc(C[C@H](NC(=O)[C@H]2CC[C@H](CN)CC2)C(=O)Nc2ccc(-c3noc(=O)[nH]3)cc2)c1 [Example 23, trans-4-(Aminomethyl)-N-[(2S)-3-[5′-(dimethylsulphamoyl)-2′-methylbiphenyl-3-yl]-1-oxo-1-{[4-(5-oxo-4,5-dihydro-1,2,4-oxadiazol-3-yl)phenyl]amino}propan-2-yl]cyclohexanecarboxamide hydrochloride] | 3.6
3 | Cc1cc(C(=O)NCCOCCOCCO)ccc1-c1cccc(C[C@H](NC(=O)[C@H]2CC[C@H](CN)CC2)C(=O)Nc2ccc(-c3nnn[nH]3)cc2)c1 [Example 25, 3′-[(2S)-2-({[trans-4-(Aminomethyl)cyclohexyl]carbonyl}amino)-3-oxo-3-{[4-(1H-tetrazol-5-yl)phenyl]amino}propyl]-N-{2-[2-(2-hydroxyethoxy)ethoxy]ethyl}-2-methylbiphenyl-4-carboxamide hydrochloride] | 4.4
4 | Cc1ccc(C[C@H](NC(=O)[C@H]2CC[C@H](CN)CC2)C(=O)Nc2ccc(-c3nnn[nH]3)cc2)cc1-c1cccc(C(=O)NCCOCCOCCO)c1 [Example 28, 5′-[(2S)-2-({[trans-4-(Aminomethyl)cyclohexyl]carbonyl}amino)-3-oxo-3-{[4-(1H-tetrazol-5-yl)phenyl]amino}propyl]-N-{2-[2-(2-hydroxyethoxy)ethoxy]ethyl}-2′-methylbiphenyl-3-carboxamide hydrochloride] | 5.2
5 | CCN(CC)CCNC(=O)c1ccc(-c2cccc(C[C@H](NC(=O)[C@H]3CC[C@H](CN)CC3)C(=O)Nc3ccc4cn[nH]c4c3)c2)cc1 [Example 53, 3′-[(2S)-2-({[trans-4-(Aminomethyl)cyclohexyl]carbonyl}amino)-3-(1H-indazol-6-ylamino)-3-oxopropyl]-N-[2-(diethylamino)ethyl]biphenyl-4-carboxamide hydrochloride] | 17
6 | Cc1cc(C(=O)N[C@@H]2CCCNC2=O)ccc1-c1cccc(C[C@H](NC(=O)[C@H]2CC[C@H](CN)CC2)C(=O)Nc2ccc3nc(C(F)(F)C(F)(F)F)[nH]c3c2)c1 [Example 63, 3′-[(2S)-2-({[trans-4-(Aminomethyl)cyclohexyl]carbonyl}amino)-3-oxo-3-{[2-(pentafluoroethyl)-1H-benzimidazol-6-yl]amino}propyl]-2-methyl-N-[(3R)-2-oxopiperidin-3-yl]biphenyl-4-carboxamide hydrochloride] | 52
7 | CN1CCN(c2cc(-c3cccc(C[C@H](NC(=O)[C@H]4CC[C@H](CN)CC4)C(=O)Nc4ccc(-c5nnn[nH]5)cc4)c3)ccn2)CC1 [Example 65, N-alpha-{[trans-4-(Aminomethyl)cyclohexyl]carbonyl}-3-[2-(4-methylpiperazin-1-yl)pyridin-4-yl]-N-[4-(1H-tetrazol-5-yl)phenyl]-L-phenylalaninamide hydrochloride] | 12
8 | CN(C)c1ccc(-c2cccc(C[C@H](NC(=O)[C@H]3CC[C@H](CN)CC3)C(=O)Nc3ccc(-c4nnn[nH]4)cc3)c2)cn1 [Example 71, N-alpha-{[trans-4-(Aminomethyl)cyclohexyl]carbonyl}-3-[6-(dimethylamino)pyridin-3-yl]-N-[4-(1H-tetrazol-5-yl)phenyl]-L-phenylalaninamide hydrochloride] | 3.1
9 | CN(C)c1ncc(-c2cccc(C[C@H](NC(=O)[C@H]3CC[C@H](CN)CC3)C(=O)Nc3ccc4[nH]c(=O)[nH]c4c3)c2)cn1 [Example 73, N-alpha-{[trans-4-(Aminomethyl)cyclohexyl]carbonyl}-3-[2-(dimethylamino)pyrimidin-5-yl]-N-(2-oxo-2,3-dihydro-1H-benzimidazol-5-yl)-L-phenylalaninamide hydrochloride] | 25
10 | NC[C@H]1CC[C@H](C(=O)N[C@@H](Cc2cccc(-c3cnc(N4CCOCC4)nc3)c2)C(=O)Nc2ccc(-c3nnn[nH]3)cc2)CC1 [Example 74, N-alpha-{[trans-4-(Aminomethyl)cyclohexyl]carbonyl}-3-[2-(morpholin-4-yl)pyrimidin-5-yl]-N-[4-(1H-tetrazol-5-yl)phenyl]-L-phenylalaninamide hydrochloride] | 2.1
11 | Cc1cnccc1-c1cccc(C[C@H](NC(=O)[C@H]2CC[C@H](CN)CC2)C(=O)Nc2ccc3[nH]c(=O)[nH]c3c2)c1 [Example 75, N-alpha-{[trans-4-(Aminomethyl)cyclohexyl]carbonyl}-3-(3-methylpyridin-4-yl)-N-(2-oxo-2,3-dihydro-1H-benzimidazol-5-yl)-L-phenylalaninamide hydrochloride] | 35
12 | CN1CCN(c2ccc(-c3cccc(C[C@H](NC(=O)[C@H]4CC[C@H](CN)CC4)C(=O)Nc4ccc(-c5nnn[nH]5)cc4)c3)cn2)CC1 [Example 77, N-alpha-{[trans-4-(Aminomethyl)cyclohexyl]carbonyl}-3-[6-(4-methylpiperazin-1-yl)pyridin-3-yl]-N-[4-(1H-tetrazol-5-yl)phenyl]-L-phenylalaninamide hydrochloride] | 7.3
13 | NC[C@H]1CC[C@H](C(=O)N[C@@H](Cc2cccc(-c3ccccc3C(F)(F)F)c2)C(=O)Nc2ccc(-c3nnn[nH]3)cc2)CC1 [Example 84, trans-4-(Aminomethyl)-N-{(25)-1-oxo-1-{[4-(1H-tetrazol-5-yl)phenyl]amino}-3-[2′-(trifluoromethyl)biphenyl-3-yl]propan-2-yl}cyclohexanecarboxamide hydrochloride] | 3.1

The remaining compounds from weak to strong by IC50, led by results:

Row | IC50 [nM] | SMILES
14 | 59 | CN1CCN(c2cc(-c3cccc(C[C@H](NC(=O)[C@H]4CC[C@H](CN)CC4)C(=O)Nc4ccc5[nH]c(=O)[nH]c5c4)c3)ccn2)CC1 [Example 76, N-alpha-{[trans-4-(Aminomethyl)cyclohexyl]carbonyl}-3-[2-(4-methylpiperazin-1-yl)pyridin-4-yl]-N-(2-oxo-2,3-dihydro-1H-benzimidazol-5-yl)-L-phenylalaninamide hydrochloride]
15 | 55 | NCCNC(=O)c1ccc(-c2cccc(C[C@H](NC(=O)[C@H]3CC[C@H](CN)CC3)C(=O)Nc3ccc4cn[nH]c4c3)c2)cc1 [Example 50, N-(2-Aminoethyl)-3′-[(2S)-2-({[trans-4-(aminomethyl)cyclohexyl]carbonyl}amino)-3-(1H-indazol-6-ylamino)-3-oxopropyl]biphenyl-4-carboxamide hydrochloride]
16 | 10 | Cc1ccc(C[C@H](NC(=O)C2CCC(CN)CC2)C(=O)Nc2ccc(-c3nnn[nH]3)cc2)cc1-c1cccc(C(=O)NC2C3CNCC32)c1 (stereo partly drawn) [Example 35, 5′-[(2S)-2-({[trans-4-(Aminomethyl)cyclohexyl]carbonyl}amino)-3-oxo-3-{[4-(1H-tetrazol-5-yl)phenyl]amino}propyl]-N-(3-azabicyclo[3.1.0]hex-6-yl)-2′-methylbiphenyl-3-carboxamide hydrochloride]
17 | 7.7 | Cc1cc(C(=O)NC2CCNCC2)ccc1-c1cccc(C[C@H](NC(=O)[C@H]2CC[C@H](CN)CC2)C(=O)Nc2ccc(-c3nnn[nH]3)cc2)c1 [Example 15, 3′-[(2S)-2-({[trans-4-(Aminomethyl)cyclohexyl]carbonyl}amino)-3-oxo-3-{[4-(1H-tetrazol-5-yl)phenyl]amino}propyl]-2-methyl-N-(piperidin-4-yl)biphenyl-4-carboxamide hydrochloride]
18 | 5.3 | NC[C@H]1CC[C@H](C(=O)N[C@@H](Cc2cccc(-c3cncc(N)c3)c2)C(=O)Nc2ccc(-c3nnn[nH]3)cc2)CC1 [Example 72, N-alpha-{[trans-4-(Aminomethyl)cyclohexyl]carbonyl}-3-(5-aminopyridin-3-yl)-N-[4-(1H-tetrazol-5-yl)phenyl]-L-phenylalaninamide hydrochloride]
19 | 4.9 | CN1CCN(c2ncc(-c3cccc(C[C@H](NC(=O)[C@H]4CC[C@H](CN)CC4)C(=O)Nc4ccc(-c5nnn[nH]5)cc4)c3)cn2)CC1 [Example 69, N-alpha-{[trans-4-(Aminomethyl)cyclohexyl]carbonyl}-3-[2-(4-methylpiperazin-1-yl)pyrimidin-5-yl]-N-[4-(1H-tetrazol-5-yl)phenyl]-L-phenylalaninamide hydrochloride]
20 | 4.5 | NC[C@H]1CC[C@H](C(=O)N[C@@H](Cc2cccc(-c3ccc(C(=O)N4CCOCC4)cc3)c2)C(=O)Nc2ccc(-c3nnc(Cl)[nH]3)cc2)CC1 [Example 26, trans-4-(Aminomethyl)-N-{(2S)-1-{[4-(3-chloro-4H-1,2,4-triazol-5-yl)phenyl]amino}-3-[4′-(morpholin-4-ylcarbonyl)biphenyl-3-yl]-1-oxopropan-2-yl}cyclohexanecarboxamide hydrochloride]
